Experimental data from patent US20140094465A1, “Compounds as S-Nitrosoglutathione Reductase Inhibitors” (N30 PHARMACEUTICALS, INC., priority 2011, published 2014).

What was measured:
[1] = tested on: ovalbumin (OVA)-induced asthma; assay: Mouse model of ovalbumin (OVA)-induced asthma (Penh, eosinophil infiltrate in BALF); assay type: in vivo; conditions: for decrease of eosinophil infiltration in BAL: three oral doses of 10 mg/kg at 48 h, 24 h, and 1 h prior to assessment
Protocol: A mouse model of ovalbumin (OVA)-induced asthma was used to screen GSNOR inhibitors for efficacy against methacholine (MCh)-induced bronchoconstriction/airway hyper-responsiveness. This is a widely used and well characterized model that presents with an acute, allergic asthma phenotype with similarities to human asthma. Efficacy of GSNOR inhibitors was assessed using a protocol in which GSNOR inhibitors were administered after OVA sensitization and airway challenge, and prior to challenge with MCh. Bronchoconstriction in response to challenge with increasing doses of MCh was assessed using whole body plethysmography (Penh; Buxco). The amount of eosinophil infiltrate into the bronchoaveolar lavage fluid (BALF) was also determined as a measure of lung inflammation. The effects of GSNOR inhibitors were compared to vehicles and to Combivent (inhaled; IH) as the positive control.
OVA (500 μg/ml) in PBS was mixed with equal volumes of 10% (w/v) aluminum potassium sulfate in distilled water and incubated for 60 min. at room temperature after adjustment to pH 6.5 using 10 N NaOH. After centrifugation at 750×g for 5 min, the OVA/alum pellet was resuspended to the original volume in distilled water. Mice received an intraperitoneal (IP) injection of 100 μg OVA (0.2 mL of 500 μg/mL in normal saline) complexed with alum on day 0. Mice were anesthetized by IP injection of a 0.2-mL mixture of ketamine and xylazine (0.44 and 6.3 mg/mL, respectively) in normal saline and were placed on a board in the supine position. Two hundred fifty micrograms (100 μl of a 2.5 mg/ml) of OVA (on day 8) and 125 μg (50 μl of 2.5 mg/ml) OVA (on days 15, 18, and 21) were placed on the back of the tongue of each animal.
In vivo airway responsiveness to methacholine was measured 24 h after the last OVA challenge in conscious, freely moving, spontaneously breathing mice with whole body plethysmography using a Buxco chamber (Wilmington, N.C.). Mice were challenged with aerosolized saline or increasing doses of methacholine (5, 20, and 50 mg/mL) generated by an ultrasonic nebulizer for 2 min. The degree of bronchoconstriction was expressed as enhanced pause (Penh), a calculated dimensionless value, which correlates with the measurement of airway resistance, impedance, and intrapleural pressure in the same mouse. Penh readings were taken and averaged for 4 min. after each nebulization challenge. Penh is calculated as follows: Penh=[(Te/Tr−1)×(PEF/PIF)], where Te is expiration time, Tr is relaxation time, PEF is peak expiratory flow, and PIF is peak inspiratory flow×0.67 coefficient. The time for the box pressure to change from a maximum to a user-defined percentage of the maximum represents the relaxation time. The Tr measurement begins at the maximum box pressure and ends at 40%.
After measurement of airway hyper-reactivity, the mice were exsanguinated by cardiac puncture, and then BALF was collected from either both lungs or from the right lung after tying off the left lung at the mainstem bronchus. Total BALF cells were counted from a 0.05 mL aliquot, and the remaining fluid was centrifuged at 200×g for 10 min at 4° C. Cell pellets were resuspended in saline containing 10% BSA with smears made on glass slides. Eosinophils were stained for 5 min. with 0.05% aqueous eosin and 5% acetone in distilled water, rinsed with distilled water, and counterstained with 0.07% methylene blue. Alternatively, eosinophils and other leukocytes were stained with DiffQuik.
GSNOR inhibitors were reconstituted in phosphate buffered saline (PBS), pH 7.4, or 0.5% w/v carboxy methylcellulose at concentrations ranging from 0.00005 to 3 mg/mL. GSNOR inhibitors were administered to mice (10 mL/kg) as a single dose or multiple dose either intravenously (IV) or orally via gavage. Dosing was performed from 30 min. to 72 h prior to MCh challenge. Effects of GSNOR inhibitors were compared to vehicle dosed in the same manner.
Combivent was used as the positive control in all studies. […]

[2] = Mouse pharmacokinetic (PK) study; assay type: in vivo; conditions: male, BALB/c, plasma, po, 10 mg/kg, male BALB/c mice, 2 mg/kg IV, 10 mg/kg PO, read-out: oral bioavailability (% F)
Text: The mouse was used to determine the pharmacokinetics of compounds of the invention. This species is widely used to assess the bioavailability of compounds by administering both oral (PO) and intravenous (IV) test articles. Efficacy of the compounds of the invention was compared by assessing plasma exposure in male BALB/c mice either via IV or PO administration at the times of peak activity.
Compounds of the invention were reconstituted in a phosphate buffered saline (PBS)/10% Solutol (HS 15) clear solution resulting in a concentration of 0.2 mg/mL and administered to mice (2 mg/kg) as a single IV dose. Animals were dosed via the lateral tail vein. Blood samples were collected at designated time points (0.083, 0.25, 0.5, 1, 2, 4, 8, 16, 24 hours) by cardiac puncture under isoflurane anesthesia (up to 1 mL blood per animal). The blood was collected into tubes containing Li-Heparin. The blood samples were kept on ice until centrifugation within approximately 30 minutes of collection. The plasma was transferred into labeled polypropylene tubes and frozen at −70° C. until analyzed by LC/MS/MS.
The compounds of the invention were reconstituted in 40% Propylene Glycol/40% Propylene Carbonate/20% of a 5% Sucrose clear solution resulting in a concentration of 2 mg/mL and administered to mice (10 mg/kg) as a single oral dose via gavage. Blood samples were collected at 0.25, 0.5, 1, 2, 4, 8, 12, 16, 20 and 24 hours post dose by cardiac puncture under isoflurane anesthesia. The blood was collected in tubes containing Li-Heparin. The blood samples were kept on ice until centrifugation within approximately 30 minutes of collection. The plasma was transferred into labeled polypropylene tubes and frozen at −70° C. until analyzed by LC/MS/MS.
Plasma samples at each timepoint were analyzed using a LC-MS/MS with a lower limit of quantification (LLOQ) of 1 ng/mL. Plasma was analyzed to determine the amount of the compound of the invention in each sample and regression curves generated for each compounds of the invention in the relevant matrixes.
WinNonlin analysis was used for calculating PK parameters for both the IV and PO administrations:
PK parameters for IV portion—AUClast; AUCINF; T1/2; Cl; Vss; Cmax; MRT
PK parameters for PO portion—AUClast; AUCINF; T1/2; Cmax; Cl, MRT.
In addition to the above PK parameters, bioavailability (% F) was calculated.

[3] = single oral dose of 10 mg/kg at 24 h prior to assessment

Row | bioavailability [2] | SMILES | decrease of eosinophil infiltration in BAL [1] | decrease of AUC for Penh ([1]; single IV dose of 10 mg/kg at 24 h prior to assessment) | decrease of AUC for Penh [1, 3] | decrease of eosinophil infiltration into BALF [1, 3]
1 | > 9% | O=c1c2ccc(O)cc2oc(C(F)(F)F)c1[C@H]1CC[C@H](C(=O)O)CC1 [IV-25] | 12 % of vehicle control | – | 43 % of vehicle control | 42 % of vehicle control
2 | > 9% | O=c1[nH]c(-c2ccc(-c3c(C(F)(F)F)oc4cc(O)ccc4c3=O)cc2)no1 [IV-31] | – | – | 18 % of vehicle control | 82 % of vehicle control
3 | > 9% | O=C(O)c1ccc(-c2c(C(F)(F)F)oc3cc(O)ccc3c2=O)c(F)c1 [IV-38] | 36 % of vehicle control | – | – | –

More lines, now with the values behind:

Row | SMILES | bioavailability [2] | decrease of eosinophil infiltration in BAL [1] | decrease of AUC for Penh ([1]; single IV dose of 10 mg/kg at 24 h prior to assessment) | decrease of AUC for Penh [1, 3] | decrease of eosinophil infiltration into BALF [1, 3]
4 | O=C(O)c1ccc(-c2ccc3cc(O)ccc3c2)c(F)c1 [III-2] | > 9% | 44 % of vehicle control | – | – | –
5 | O=c1c(-c2ccc(-c3nnn[nH]3)cc2)c(C(F)(F)F)oc2cc(O)ccc12 [IV-23] | > 9% | – | 39 % of vehicle control | – | –
